# Experimental data reported in patent publication US20240294465A1, “NOVEL ANTI-FIBROTIC DRUGS” (HELMHOLTZ ZENTRUM MUNCHEN - DEUTSCHES FORSCHUNGSZENTRUM FUR …, priority 2021, published 2024).
# Tested on: TGFβ1-induced fibulin-1 ECM deposition in primary human lung IPF-fibroblasts (phLFs)
# Test: Assessing N23P activity in inhibiting ECM deposition in IPF-fibroblasts (fibulin-1 MFI)
# Format: cell-based
# Conditions: Homo sapiens, 72 h, 10 μM, TGFβ1 1 ng/ml, MFI, one or two different IPF-phLFs (n=1-2)
# Protocol: phLFs were cultured in DMEM F-12 medium with 20% fetal bovine serum (FBS) and antibiotic supplement as mentioned above. Cells were seeded with 6000 cells/well in 384-well CellCarrier plates (Perkin Elmer, Cat #6007550). Following overnight incubation, cells were starved in serum-reduced medium (1% FBS with 0.1 mM 2-phosphoascorbate (Sigma, Cat #49752)) for 24 h. Afterwards, cells were treated with TGFβ1 (1 ng/ml) or vehicle, and additionally small molecules or appropriate vehicle controls were added. After 72 h of incubation, medium was changed for starving medium with 1 μg/mL AlexaFluor-488 fluorophore conjugated anti-collagen-type-5 antibodies (SantaCruz, Clone C-5, Cat #sc-166155 AF488), 0.66 μg/mL AlexaFluor-555 fluorophore conjugated anti-collagen-type-1 antibodies (Rockland, Cat #600-401-103-0.1), and 1 μg/mL AlexaFluor-637 fluorophore conjugated anti-fibulin 1 antibodies (SantaCruz, Clone C-5, Cat #sc-25281 AF647) and 1 μg/mL Hoechst H33342 (Sigma). Fluorescenceconjugation of the collagen type 1 antibody was done by using the AlexaFluor-555 Protein Labeling Kit (Invitrogen, Cat #A20174) according to manufacturer's instructions. Labeling efficacy was controlled by photometrical means.
# Following four hours of incubation, cells were washed three times with PBS and fixed with paraformaldehyde (PFA). For automated liquid handling in 384 well plates, an INTEGRA Assist Plus (INTEGRA, Zizers, Switzerland) equipped with an INTEGRA Viaflo 1I pipette (INTEGRA, Zizers, Switzerland, Cat #4642), 125 μL GripTips™ pipette tips (INTEGRA, Zizers, Switzerland, Cat #6464) and sterile reagent reservoirs (INTEGRA, Cat #4311) were applied. All automated pipetting steps with the INTEGRA Assist Plus were performed at 9.5 μL/s in order to ensure proper integrity and attachment of the deposited ECM to the culturing surface within the wells of the 384-well plates. During cell seeding the automated liquid handling was performed at 89.3 μL/s. Removal of liquids from the well-plates was done by manually inverting the plates.
# Following fixation, the automated imaging was achieved by using aconfocal laser scanning microscope (LSM710, Zeiss) with automated focus detection for three-dimensional image acquisition (1024 px×1024 px×9 px which equals a dimension of 1417 μm×1417 μm×16 μm). For post-acquisition analysis images were imported into IMARIS software (Bitplane) and volume detection or alternatively quantification of the mean fluorescence intensity, as well as Hoechst-stained cell nuclei were automatically counted by using Imaris' spot detection algorithm.
# Cells were seeded with 6000 cells/well in 384-well CellCarrier plates. After overnight incubation, cells were starved in serum-reduced medium (1% FBS with 0.1 mM 2-phosphoascorbate for 24 h). Then, phLFs were treated with TGFβ1 (1 ng/ml) or vehicle, and incubated together with synthesized N23Ps (10 μM) or appropriate vehicle controls. After 72 h of incubation, medium was changed for starvation medium with 1 μg/mL AlexaFluor-637 fluorophore conjugated anti-fibulin 1 antibodies (SantaCruz, Clone C-5, Cat #sc-25281 AF647) and 1 μg/mL Hoechst H33342 (Sigma). Following four hours of incubation, cells were washed three times with PBS and fixed with paraformaldehyde (PFA). Following fixation, the automated imaging was achieved by using a confocal laser scanning microscope (LSM710, Zeiss) with automated focus detection for three-dimensional image acquisition (1024 px×1024 px×9 px which equals a dimension of 1417 μm×1417 μm×16 μm). For post-acquisition analysis images were imported into IMARIS software (Bitplane) and quantified for the mean fluorescence intensity, as well as Hoechst-stained cell nuclei were automatically counted by using Imaris' spot detection algorithm.
# Assessment of ECM inhibition I: Mean fluorescence intensity (MFI) values represented the degree of fibulin-1 ECM deposition in three different IPF-phLFs (n=3). […]
row,SMILES,inhibition at 10 µM [%]
1,"C#CCCCOc1ccc(/C=C/C(=O)Nc2ccccc2OCCC2(C)N=N2)cc1 [Example 168, (E)-N-(2-(2-(3-methyl-3H-diazirin-3-yl)ethoxy)phenyl)-3-(4-(pent-4-yn-1-yloxy)phenyl)acrylamide]",60 to 90
2,"C#CCCOc1ccccc1NC(=O)/C=C/c1ccc(OC)cc1 [Example 46, (E)-N-(2-(but-3-yn-1-yloxy)phenyl)-3-(4-methoxyphenyl)acrylamide]",20 to 60
3,"O=C(/C=C/c1ccc2c(c1)OC(F)(F)O2)Nc1ccc(F)c(F)c1OCCC1CC1 [Example 156, (E)-N-(2-(2-cyclopropylethoxy)-3,4-difluorophenyl)-3-(2,2-difluorobenzo[d][1,3]dioxol-5-yl)acrylamide]",60 to 90
4,"COc1ccc(/C=C/C(=O)Nc2ccccc2OCCC(F)(F)F)cc1 [Example 155, (E)-3-(4-methoxyphenyl)-N-(2-(3,3,3-trifluoropropoxy)phenyl)acrylamide]",60 to 90
5,"CCCCOc1c(NC(=O)/C=C/c2ccc3[nH]ccc3c2)ccc(F)c1F [Example 163, (E)-N-(2-butoxy-3,4-difluorophenyl)-3-(1H-indol-5-yl)acrylamide]",20 to 60
6,CCCCOc1ccccc1NC(=O)/C=C/c1ccc2c(c1)CCC(C)(C)O2 [Example 63],20 to 60
7,"C#CCCCOc1ccc(/C=C/C(=O)Nc2ccccc2OCCCC)cc1 [Example 83, (E)-N-(2-butoxyphenyl)-3-(4-(pent-4-yn-1-yloxy)phenyl)acrylamide]",> 90
8,"COc1ccc(/C=C/C(=O)Nc2ccccc2OCCCC2CC2)cc1 [Example 60, (E)-N-(2-(3-cyclopropylpropoxy)phenyl)-3-(4-methoxyphenyl)acrylamide]",> 90
9,"CCCCOc1ccccc1NC(=O)/C=C/c1ccc2[nH]c(C)nc2c1 [Example 161, (E)-N-(2-butoxyphenyl)-3-(2-methyl-1H-benzo[d]imidazol-5-yl)acrylamide]",> 90
10,"CCCCOc1ccccc1NC(=O)/C=C/c1ccc2nonc2c1 [Example 166, (E)-3-(benzo[c][1,2,5]oxadiazol-5-yl)-N-(2-butoxyphenyl)acrylamide]",20 to 60
11,"CCCCOc1c(NC(=O)/C=C/c2ccc3sc(C)nc3c2)ccc(F)c1F [Example 162, (E)-N-(2-butoxy-3,4-difluorophenyl)-3-(2-methylbenzo[d]thiazol-5-yl)acrylamide]",60 to 90
12,"CCCCOc1ccccc1NC(=O)/C(=C/c1ccc(OC)cc1)C(C)C [Example 82, (E)-N-(2-butoxyphenyl)-2-(4-methoxybenzylidene)-3-methylbutanamide]",20 to 60
13,CCCCOc1ccccc1NC(=O)/C=C/c1ccc2c(c1)OC(F)(F)O2 [Example 6],20 to 60

# Same assay, conditions: Homo sapiens, 72 h, 10 μM, TGFβ1 1 ng/ml, MFI, three different IPF-phLFs (n=3)
row,SMILES,inhibition at 10 µM [%]
1,"COc1ccc(/C=C/C(=O)Nc2ccccc2Oc2ccc(Cl)cc2)cc1 [Example 39, (E)-N-(2-(4-chlorophenoxy)phenyl)-3-(4-methoxyphenyl)acrylamide]",60 to 90
2,"COc1ccc(/C=C/C(=O)Nc2ccccc2OCc2ccc(Cl)cc2)cc1 [Example 45, (E)-N-(2-((4-chlorobenzyl)oxy)phenyl)-3-(4-methoxyphenyl)acrylamide]",> 90
3,"CCCCOc1ccccc1NC(=O)/C=C/c1ccc2occc2c1 [Example 37, (E)-3-(benzofuran-5-yl)-N-(2-butoxyphenyl)acrylamide]",> 90
4,"CCCCOc1ccccc1NC(=O)/C=C/c1cc(F)c(OC)c(F)c1 [Example 33, (E)-N-(2-butoxyphenyl)-3-(3,5-difluoro-4-methoxyphenyl)acrylamide]",60 to 90
5,"COc1ccc(/C=C/C(=O)Nc2ccccc2Oc2ccccc2F)cc1 [Example 43, (E)-N-(2-(2-fluorophenoxy)phenyl)-3-(4-methoxyphenyl)acrylamide]",60 to 90
6,CCCCOc1c(NC(=O)/C=C/c2ccc(OC)cc2)ccc(F)c1F [Example 13],> 90
7,"CCCCOc1ccccc1N(Cc1ccccc1)C(=O)/C=C/c1ccc(OC)cc1 [Example 75, (E)-N-benzyl-N-(2-butoxyphenyl)-3-(4-methoxyphenyl)acrylamide]",> 90
8,"CCCCOc1ccccc1NC(=O)/C=C/c1ccc(OCC(F)(F)F)cc1 [Example 2, (E)-N-(2-butoxyphenyl)-3-(4-(2,2,2-trifluoroethoxy)phenyl)acrylamide]",60 to 90
9,CCCCOc1ccccc1N(C)C(=O)/C=C/c1ccc(OC)c(OC)c1 [Example 67],> 90
10,"COc1ccc(/C=C/C(=O)Nc2ccccc2OCc2ccc(F)cc2)cc1 [Example 5, (E)-N-(2-((4-fluorobenzyl)oxy)phenyl)-3-(4-methoxyphenyl)acrylamide]",> 90
11,"COc1ccc(/C=C/C(=O)Nc2ccccc2OCc2ccccc2)cc1 [Example 12, (E)-N-(2-(benzyloxy)phenyl)-3-(4-methoxyphenyl)acrylamide]",> 90
12,"CCCCOc1cc(Cl)ccc1NC(=O)/C=C/c1ccc(OC)cc1 [Example 21, (E)-N-(2-butoxy-4-chlorophenyl)-3-(4-methoxyphenyl)acrylamide]",20 to 60
13,"CCCCOc1cccc(Cl)c1NC(=O)/C=C/c1ccc(OC)c(OC)c1 [Example 36, (E)-N-(2-butoxy-6-chlorophenyl)-3-(3,4-dimethoxyphenyl)acrylamide]",60 to 90
14,"CCCCOc1ccccc1NC(=O)/C=C/c1ccc(OCC)cc1 [Example 20, (E)-N-(2-butoxyphenyl)-3-(4-ethoxyphenyl)acrylamide]",60 to 90
15,"C#CCCCOc1ccc(/C=C/C(=O)Nc2ccccc2OCCCC)cc1 [Example 83, (E)-N-(2-butoxyphenyl)-3-(4-(pent-4-yn-1-yloxy)phenyl)acrylamide]",> 90
16,"CCCCOc1cc(F)ccc1NC(=O)/C=C/c1ccc(OC)cc1 [Example 31, (E)-N-(2-butoxy-4-fluorophenyl)-3-(4-methoxyphenyl)acrylamide]",60 to 90
17,"CCCCOc1ccccc1NC(=O)/C=C/c1cccc(OC)c1 [Example 7, (E)-N-(2-butoxyphenyl)-3-(3-methoxyphenyl)acrylamide]",60 to 90
18,"CCCCOc1ccccc1N(C)C(=O)/C=C/c1ccc(OCC)cc1 [Example 71, (E)-N-(2-butoxyphenyl)-3-(4-ethoxyphenyl)-N-methylacrylamide]",20 to 60
19,"COc1ccc(/C=C/C(=O)Nc2ccccc2OCCCC(F)(F)F)cc1 [Example 29, (E)-3-(4-methoxyphenyl)-N-(2-(4,4,4-trifluorobutoxy)phenyl)acrylamide]",20 to 60
20,"CCCCOc1ccccc1NC(=O)/C=C/c1ccc2c(c1)CCO2 [Example 34, (E)-N-(2-butoxyphenyl)-3-(2,3-dihydrobenzofuran-5-yl)acrylamide]",> 90
21,"COc1ccc(/C=C/C(=O)Nc2ccccc2Oc2ccccc2)cc1 [Example 3, (E)-3-(4-methoxyphenyl)-N-(2-phenoxyphenyl)acrylamide]",> 90
22,"CCCCOc1ccccc1NC(=O)/C(C)=C/c1ccc(OC)cc1 [Example 79, (E)-N-(2-butoxyphenyl)-3-(4-methoxyphenyl)-2-methylacrylamide]",60 to 90
23,CCCCOc1ccccc1NC(=O)/C=C/c1ccc2c(c1)OC(F)(F)O2 [Example 6],60 to 90
24,"CCCCOc1ccccc1NC(=O)/C=C/c1ccc(OC(F)F)cc1 [Example 11, (E)-N-(2-butoxyphenyl)-3-(4-(difluoromethoxy)phenyl)acrylamide]",60 to 90

# Same assay, conditions: at 10 μM
row,SMILES,inhibition of TGFβ1-induced ECM deposition
1,"COc1ccc(/C=C/C(=O)Nc2ccccc2C(=O)O)cc1OC [Tranilast, reference compound]",no inhibition
